# Laboratory results reported in PMC7661967, “Magnetic Resonance Molecular Imaging of Extradomain B Fibronectin Improves Imaging of Pancreatic Cancer Tumor Xenografts” (Frontiers in Oncology, 2020).
# Entries after “also recorded” stand apart in the source; their conditions may differ. No end group written: not given here.
# Tests used:
# [1] = test system: EDB-FN; conditions: cited from earlier work
# Method: ZD2 targeted MRI contrast agents have been developed and tested for MRMI of EDB-FN in aggressive breast cancer and prostate cancer models ([15], [16], [20]). The targeted contrast agent ZD2-N3-Gd(HP-DO3A) (MT218) was developed by conjugating ZD2 peptide to a clinical macrocyclic contrast agent Gd(HP-DO3A) ([16], [20]). […] MT218 is a small molecular conjugate of ZD2 peptide to a macrocyclic clinical MRI contrast agent Gd(HP-DO3A). The binding affinity of MT218 to EDB-FN was measured to be 3.2 ± 0.2 μM, which is similar to that of a previously targeted contrast agent ZD2-Gd(HP-DO3A) ([23]). The T1 and T2 relaxivities of MT218 were measured to be 6.07 ± 1.13 s^−1 mM^−1 and 8.20 ± 0.18 s^−1 mM^−1, respectively, at 3 T. T1 and T2 relaxivities of Gd(HP-DO3A) were measured to be 3.20 ± 0.96 s^−1 mM^−1 and 5. ...
# [2] = test system: BxPC3-GFP-Luc intrapancreatic tumor xenografts; test: MRMI of BxPC3-GFP-Luc intrapancreatic tumor xenografts (3T); assay type: in vivo, human cells in female nu/nu mice
# Method: (§1) For flank xenograft models, 4 × 10^6 Capan-1 cells suspended in 100 μL of a 6 mg/mL Matrigel (Corning, Corning, NY) solution was injected subcutaneously into the flank of 8-week-old female nu/nu mice. The tumor bearing mice were imaged after tumor volumes exceeded 300 mm^3. For orthotopic intrapancreatic models, the pancreas of 4-week-old female nu/nu mice were surgically exposed via a ~10 mm incision in the left ventral abdomen and the application of gentle pressure to express the spleen and associated pancreatic tissue. 1 × 10^6 BxPC3-GFP-Luc or PANC-1-GFP-Luc cells suspended in 100 μL of a Matrigel solution (6 mg/mL) was injected into the pancreatic tissue using an insulin syringe with a 31G needle. Any leakage of cell suspension was lavaged with DPBS twice to prevent intraabdominal seeding PaCa cells. The peritoneal fascia was closed with absorbable stitches, and the dermis closed with stainless steel wound clips. Prior to imaging, growth of tumor was verified by bioluminescence imaging with intraperitoneal injection of d-luciferin on IVIS Spectrum system (Perkin Elmer, Waltham, MA).
# (§2) Mice bearing intrapancreatic tumors were anesthetized and a tail vein catheter was inserted. Image acquisition was performed on a MR Solutions 3T MRS 3000 scanner with a mouse radiofrequency coil. Axial images were obtained using a Fast Spin Echo (FSE) MRI sequence (305 ms TR, 11 ms TE, 90° FA, 4 cm × 4 cm FOV, 1 mm slice thickness, 10 slices, echo train length = 4, echo spacing = 11 ms, 4 averages, 256 × 256 matrix, 0.0156 × […] cm/pixel resolution) with respiratory gating. Images were acquired before contrast and at different time points after contrast injection at a dose of 0.1 mmol/kg (100 μL). For competitive binding experiments, a 5:1 molar ratio of free ZD2 peptide to MT218 was injected in mice bearing intrapancreatic BxPC3 tumor xenografts (n = 3) at a dose of 0.1 mmol MT218/kg (100 μL). Images obtained on the MR Solutions 3T scanner were normalized using the Surscalereader.exe (MR Solutions, Guildford, UK) program supplied.
# (§3) Image files were exported and analyzed in Horus software. ROIs were drawn in the tumor, liver, kidney, and muscle. Muscle ROIs were taken from the muscle, with other structures (liver, kidney, tumor) identified after comparison with published images and comparison with anatomical landmarks or bioluminescent imaging. Pancreatic lesions were localized using the liver, kidney, and spleen as anatomical landmarks. […] Size of ROIs drawn for image analysis are summarized in Supplementary Table 1. The contrast-to-noise ratio of the tumor (CNR) was calculated using the following equation, where σnoise is the standard deviation of intensities from an ROI drawn outside of the mouse body:
# (§4) CNR=Mean IntensityTumor-Mean IntensityMuscle/σnoise.
# (§5) Image subtraction was performed on images adjusted to the same window and level in FIJI open-source software.
# (§6) Image contrast was reported as fold enhancement of contrast to noise ratio of post-contrast images over pre-contrast images using Fold Enhancement = CNRpost/CNRpre. Statistical analysis of CNR was performed in Minitab Express (Minitab Inc., State College, PA). One-way ANOVA with Fisher Individual Tests for Differences of Means post-hoc testing was performed to determine statistical significance between >2 means (p < 0.05). Student's T test was used to determine statistical significance between 2 means (p < 0.05).
# [3] = test system: EDB-FN in PaCa; conditions: PET; cited from earlier work
# Excerpt: Molecular imaging of EDB-FN in cancer has been previously investigated with antibodies labeled with radioisotopes for PET imaging. Anti-EDN-FN antibody BC-1 was labeled with ^125I and tested in mice bearing U87 brain tumor and SKMel28 melanoma xenografts ([29]). […] Nanobodies with a smaller size were recently developed for molecular imaging of E ...
# [4] = test system: EDB-FN; test: Fluorescence staining of frozen mouse tumor xenograft and normal tissue sections; assay type: binding, human PaCa xenografts in nu/nu mice; conditions: for staining: ZD2-Cy5.5 500 nM, room temperature 2.5 h, BC-1 1:400, 4°C overnight
# Method: For assessment of binding specificity of ZD2 peptide, flash frozen samples of tumor and normal tissues were collected from the euthanized tumor bearing mice and embedded in optimal cutting temperature media. The embedded samples were then immersed in liquid nitrogen for 5 min and transferred to −80°C for storage before cryosectioning. Tissue sections were blocked for 1 h in PBS containing 0.05% Tween-20 and 10% normal goat serum (Gibco, Gaithersburg, MD) and then stained with BC-1 primary monoclonal antibody (1:400) or ZD2-Cy5.5 (500 nM) at 4°C overnight or room temperature incubation for 2.5 h, respectively, and then washed with PBS-T buffer. Secondary Alexa Fluor 594 anti-rabbit was incubated with the BC-1 treated sections for 1 h at room temperature (1:1,000). For the blocking experiment, the tissue sections were first incubated with an excess of BC1 antibody at 4°C overnight, then washed three times with PBS-T. The sections were then incubated with ZD2-Cy5.5 at room temperature incubation for 2.5 h. The stained sections were washed with PBS-T buffer and images were acquired on an Olympus FV1000 (Waltham, MA) confocal microscope using pre-programmed emission and excitation filters for Cy5.5 (excitation: 635 nm; emission: 693 nm) and DAPI (excitation: 405 nm; emission: 461 nm), using a 10 × objective lens.
# [5] = test system: EDB-FN; test: ZD2-Cy5.5 staining of human pancreatic tissue; assay type: binding; conditions: 500 nM, 1 h, 37°C, confocal
# Method: Tissue sections from PaCa patients (Case Comprehensive Cancer Center, Cleveland, OH) were deparaffinized with xylene, ethanol, and washed with water. Blocking was performed with 10% goat serum (Invitrogen, Carlsbad, CA) in PBS with 0.1% Tween 20 (PBS-T) for 30 min and incubated with 500 nM ZD2-Cy5.5 in PBS-T for 1 h at 37°C. Following three washes with PBS-T, the sections were mounted using Fluoroshield mounting medium (Abcam, Cambridge, UK). Images were acquired on a FV1000 (Olympus, Waltham, MA) confocal microscope using pre-programmed emission and excitation filters for Cy5.5 (excitation: 635 nm; emission: 693 nm) and DAPI (excitation: 405 nm; emission: 461 nm), using a 10 × objective lens. All tissue samples were imaged at the same laser power and sensor gain. Images were generated from single-channel grayscale images using FIJI software.
# [6] = test system: PANC-1-GFP-Luc intrapancreatic tumor xenografts; test: MRMI of PANC-1-GFP-Luc intrapancreatic tumor xenografts (3T); assay type: in vivo, human cells in female nu/nu mice; conditions: 0.1 mmol/kg, 10 min post-injection, n = 6
# Method: as §1, §2, §3, §4, §5, §6
# [7] = T1 and T2 relaxivity measurement at 3T; assay type: physicochemical; conditions: 0-2 mM MT218 in DPBS buffer
# Method: The T1 and T2 values of MT218 and Gd(HP-DO3A) solutions were determined using a 3T MRS 3000 scanner (MR Solutions, Guildford, UK). Solutions of MT218 were prepared at concentrations of 0, 0.25, 0.5, 1, and 2 mM in DPBS buffer (Gibco, Gaithersburg, MD). T1 values were measured using an inversion recovery-fast low angle shot (IR-FLASH) sequence (τ = 10 ms, TE = 4 ms, FA = 8°, echoes/frames = 128, FOV = 40 mm × 40 mm, slice thickness = 2 mm, number of averages = 1, time delay = 4,000 ms, sample period = 200, matrix = 256 × 128). T2 values were obtained using a multi-echo multi-slice (MEMS) sequence (TE = 15 ms, […], echoes = 10, FOV: 40 mm × 40 mm, slice thickness = 1 mm, number of averages = 1, matrix = 256 × 192). The r1 and r2 relaxivities were calculated from the slopes of 1/T1 and 1/T2 vs. Gd concentration plots, respectively.
# [8] = test system: Capan-1 flank tumor xenografts; test: MRMI of Capan-1 flank tumor xenografts (7T); assay type: in vivo, human cells in female nu/nu mice; conditions: 0.1 mmol/kg
# Method: as §1
# Flank tumor-bearing mice were anesthetized and a tail vein catheter inserted. MR image acquisition was performed on a 7T Biospin (Bruker, Billerica, MA) preclinical small animal scanner with a volume radiofrequency coil. Axial images were obtained using a multi-spin multi-echo (MSME) MRI sequence (500 ms TR, 8.1 ms TE, 90° FA, 4.50 cm × 4.50 cm FOV, 1.50 mm slice thickness, 16 slices, 2 averages, 200 × 200 matrix, 0.0225 × 0.0225 cm/pixel resolution). Contrast agents were injected at a dose of 0.1 mmol/kg (100 μL) via the tail vein catheter, followed by a saline flush. Images of the tumors were acquired before contrast and at various time points after contrast administration. Gd(HP-DO3A) was used as a control.
# as §3, §4, §5, §6
# [9] = biological target: extradomain B fibronectin in human PaCa tumor xenografts in mice (human (endogenous in BxPC3, Capan-1 and PANC-1 xenografts))
# [10] = biological target: extradomain B fibronectin in human PaCa tumor xenografts in mice (human (endogenous in BxPC3, Capan-1 and PANC-1 xenografts)); remark: listed apart in the source
# [11] = biological target: EDB fragment of FN; test: MST; NT-647-labelled EDB fragment at a fixed concentration, MT218 varied; 50 mM PBS w/0.05% Tween-20; 25°C; Monolith NT.115
# [12] = 0.1 mmol/kg, 10 min post-injection, n = 3
molecule,measurement,setting,value
TVRTSAD [ZD2],binding to EDB-FN (specificity),[1],binds with high specificity to EDB-FN
same,effect of free ZD2 peptide on binding of MT218,"[2]; 5:1 molar ratio free ZD2 peptide to MT218, co-injection, n = 3",blocked the binding of the MT218 to the tumors; also recorded: inhibited the binding of MT218
ZD2-((68)Ga-NOTA) [ZD2 peptide labeled with ^68Ga],molecular imaging of EDB-FN in PaCa,[3],sensitive and specific molecular imaging of EDB-FN in PaCa
"ZD2-Cy5.5: peptide-fluorophore conjugate (TVRTSAD; also: Cy5.5 conjugate, end of attachment not given here)",staining,"[4]; BxPC3, Capan-1 and PANC-1 tumor tissues",high in all three tumor tissues
same,ZD2-Cy5.5 binding after blocking,"[4]; flash frozen tumor tissues pre-incubated with excess BC-1 antibody, 4°C overnight, then ZD2-Cy5.5",No fluorescent signal; also recorded: blocked
same,staining,[4]; normal pancreatic and muscle tissues,undetectable; also recorded: No staining
same,ZD2-Cy5.5 binding / EDB-FN expression,[5]; human PaCa tissue,high EDB-FN expression and high
same,ZD2-Cy5.5 binding / EDB-FN expression,[5]; normal pancreatic tissue,little expression and low
same,ZD2-Cy5.5 binding / EDB-FN expression,[5]; precancerous PanIN tissue,moderate expression
"CC(O)CN1CCN(CC(=O)[O-])CCN(CC(=O)[O-])CCN(CC(=O)[O-])CC1.[Gd+3] (stereo not shown) [Gd(HP-DO3A), reference compound]",intratumoral CNR increase (post/pre),[6],2.35 fold
same,tumor contrast enhancement,[6],did not produce significant tumor contrast enhancement
same,"tumor signal enhancement, subtraction images",[6],little change
same,T1 relaxivity (r1),[7]; IR-FLASH,3.20 ± 0.96 s⁻¹ mM⁻¹
same,T2 relaxivity (r2),[7]; MEMS,5.12 ± 0.18 s⁻¹ mM⁻¹
same,tumor CNR increase compared with MT218,"[2]; 0.1 mmol/kg, 10 min, p < 0.01",significantly less than that with MT218
same,tumor CNR increase (post/pre),"[2]; 0.1 mmol/kg, 10 min post-injection (maximum for MT218), n = 3",approximately 2.5 fold
same,tumor contrast enhancement,[2]; [12],modest contrast enhancement
same,"tumor enhancement, subtraction images",[2]; [12],less intratumoral signal enhancement
same,tumor contrast enhancement,"[2]; 0.1 mmol/kg, 20 min post-injection, n = 3",reduced to background level
same,contrast enhancement in tumor core,[8]; after injection,did not exhibit significant tumor core enhancement
same,"enhancement in tumor periphery, subtraction images",[8]; early time points (5–15 min post-contrast),modest peripheral contrast enhancement
same,intratumoral CNR increase (post/pre),"[8]; for the duration of the experiment, n = 5",1.77 fold
same,"contrast enhancement throughout tumors, subtraction images","[8]; later time points (25–35 min) for MT218, all time points for Gd(HP-DO3A)",little to no intratumoral contrast
same,intratumoral CNR increase compared with MT218,[8]; p < 0.01,significantly less than MT218
"TVRTSAD (also: conjugated to Gd(HP-DO3A) via N3, end of attachment not given here) [ZD2-N3-Gd(HP-DO3A)]","tumor CNR fold increase, T1-weighted MRI, Capan-1 flank xenografts, MT218 0.1 mmol/kg, time course 5-35 min post-injection (maximum at 15 min)",[9],4.8 fold
same,"tumor CNR fold increase, T1-weighted MRI, BxPC3-GFP-Luc intrapancreatic model, MT218 0.1 mmol/kg without the free ZD2 peptide",[10],4.5 fold
same,"tumor contrast-to-noise ratio (CNR) fold increase, T1-weighted MRI, BxPC3-GFP-Luc intrapancreatic model, MT218 0.1 mmol/kg co-injected with a 5-fold excess of free ZD2 peptide",[10],2.5 fold
same,Kd,[11],3.2 µM
